Results: the supplement of paper PMC10307832

Legend:
Assay in all cases: relative viability (nuclei count vs DMSO), 5 days (fraction); higher = more cells survive
LC-2-ad = system: LC-2-ad
In short: (§1)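 Cells from lung cancer lines were seeded into 1536-well plates and, one day later, dosed by pin tool. Treatments were either a single drug or a fixed dose of an anchor drug with five library-drug doses (not always all listed) in √10 steps. After 5 days, nuclei were stained in a one-step fixation (final 0.05% Triton X-100, 1% formaldehyde, 1 ug/ml Hoechst) and counted on 4× images, and relative viability is the treated-to-vehicle nuclei ratio, as the median of duplicate plates.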

NCI-H522 = system: NCI-H522
In short: as §1

SK-LU-1 = system: SK-LU-1
In short: as §1

NCI-H358 = system: NCI-H358
In short: as §1

NCI-H2228 = system: NCI-H2228
In short: as §1

RERF-LC-KJ = system: RERF-LC-KJ
In short: as §1

NCI-H647 = system: NCI-H647
In short: as §1

NCI-H1915 = system: NCI-H1915
In short: as §1

HCC-15 = system: HCC-15
In short: as §1

NCI-H1755 = system: NCI-H1755
In short: as §1

HCC-78 = system: HCC-78
In short: as §1

NCI-H460 = system: NCI-H460
In short: as §1

SW 1573 = system: SW 1573
In short: as §1

NCI-H1975 = system: NCI-H1975
In short: as §1

A-427 = system: A-427
In short: as §1

PC-3 [JPC-3] = system: PC-3 [JPC-3]
In short: as §1

NCI-H2342 = system: NCI-H2342
In short: as §1

LOU-NH91 = system: LOU-NH91
In short: as §1

NCI-H1734 = system: NCI-H1734
In short: as §1

LXF-289 = system: LXF-289
In short: as §1

HOP-62 = system: HOP-62
In short: as §1

NCI-H2347 = system: NCI-H2347
In short: as §1

NCI-H2126 = system: NCI-H2126
In short: as §1

Question: Which results are given for `Clc1ccc(Nc2nnc(Cc3ccncc3)c3ccccc23)cc1` [Vatalanib] + O=C(CCCCCCC(=O)Nc1ccccc1)NO [Vorinostat] (partner 1 µM)?
Answer: relative viability (LC-2-ad; first compound 0.04 µM): 0.695; relative viability (LC-2-ad; first compound 0.1265 µM): 0.743; relative viability (LC-2-ad; first compound 0.4 µM): 0.768; relative viability (LC-2-ad; first compound 1.265 µM): 0.682; relative viability (LC-2-ad; first compound 4 µM): 0.676; relative viability (NCI-H522; first compound 0.04 µM): 0.634; relative viability (NCI-H522; first compound 0.1265 µM): 0.898; relative viability (NCI-H522; first compound 0.4 µM): 1.06; relative viability (NCI-H522; first compound 1.265 µM): 1; relative viability (NCI-H522; first compound 4 µM): 0.895; relative viability (SK-LU-1; first compound 0.04 µM): 0.829; relative viability (SK-LU-1; first compound 0.1265 µM): 0.798; relative viability (SK-LU-1; first compound 0.4 µM): 1; relative viability (SK-LU-1; first compound 1.265 µM): 0.721; relative viability (SK-LU-1; first compound 4 µM): 0.8; relative viability (NCI-H358; first compound 0.04 µM): 0.683; relative viability (NCI-H358; first compound 0.1265 µM): 0.719; relative viability (NCI-H358; first compound 0.4 µM): 0.686; relative viability (NCI-H358; first compound 1.265 µM): 0.713; relative viability (NCI-H358; first compound 4 µM): 0.632; relative viability (NCI-H2228; first compound 0.04 µM): 0.795; relative viability (NCI-H2228; first compound 0.1265 µM): 0.589; relative viability (NCI-H2228; first compound 0.4 µM): 0.653; relative viability (NCI-H2228; first compound 1.265 µM): 0.723; relative viability (NCI-H2228; first compound 4 µM): 0.751; relative viability (RERF-LC-KJ; first compound 0.04 µM): 0.714; relative viability (RERF-LC-KJ; first compound 0.1265 µM): 0.747; relative viability (RERF-LC-KJ; first compound 0.4 µM): 0.69; relative viability (RERF-LC-KJ; first compound 1.265 µM): 0.665; relative viability (RERF-LC-KJ; first compound 4 µM): 0.651; relative viability (NCI-H647; first compound 0.04 µM): 0.658; relative viability (NCI-H647; first compound 0.1265 µM): 0.685; relative viability (NCI-H647; first compound 0.4 µM): 0.87; relative viability (NCI-H647; first compound 1.265 µM): 0.641; relative viability (NCI-H647; first compound 4 µM): 0.632; relative viability (NCI-H1915; first compound 0.04 µM): 0.507; relative viability (NCI-H1915; first compound 0.1265 µM): 0.544; relative viability (NCI-H1915; first compound 0.4 µM): 0.587; relative viability (NCI-H1915; first compound 1.265 µM): 0.482; relative viability (NCI-H1915; first compound 4 µM): 0.518; relative viability (HCC-15; first compound 0.04 µM): 0.853; relative viability (HCC-15; first compound 0.1265 µM): 0.836; relative viability (HCC-15; first compound 0.4 µM): 0.964; relative viability (HCC-15; first compound 1.265 µM): 0.801; relative viability (HCC-15; first compound 4 µM): 0.863; relative viability (NCI-H1755; first compound 0.04 µM): 0.799; relative viability (NCI-H1755; first compound 0.1265 µM): 0.891; relative viability (NCI-H1755; first compound 0.4 µM): 0.757; relative viability (NCI-H1755; first compound 1.265 µM): 0.759; relative viability (NCI-H1755; first compound 4 µM): 0.694; relative viability (HCC-78; first compound 0.04 µM): 0.425; relative viability (HCC-78; first compound 0.1265 µM): 0.478; relative viability (HCC-78; first compound 0.4 µM): 0.49; relative viability (HCC-78; first compound 1.265 µM): 0.465; relative viability (HCC-78; first compound 4 µM): 0.424; relative viability (NCI-H460; first compound 0.04 µM): 0.859; relative viability (NCI-H460; first compound 0.1265 µM): 0.636; relative viability (NCI-H460; first compound 0.4 µM): 0.765; relative viability (NCI-H460; first compound 1.265 µM): 0.702; relative viability (NCI-H460; first compound 4 µM): 0.61; relative viability (SW 1573; first compound 0.1265 µM): 0.812; relative viability (SW 1573; first compound 0.4 µM): 1.4; relative viability (SW 1573; first compound 1.265 µM): 0.839; relative viability (SW 1573; first compound 4 µM): 0.624; relative viability (NCI-H1975; first compound 0.04 µM): 0.674; relative viability (NCI-H1975; first compound 0.1265 µM): 0.691; relative viability (NCI-H1975; first compound 0.4 µM): 0.726; relative viability (NCI-H1975; first compound 1.265 µM): 0.66; relative viability (NCI-H1975; first compound 4 µM): 0.71; relative viability (A-427; first compound 0.04 µM): 0.874; relative viability (A-427; first compound 0.1265 µM): 0.852; relative viability (A-427; first compound 0.4 µM): 0.945; relative viability (A-427; first compound 4 µM): 0.83; relative viability (PC-3 [JPC-3]; first compound 0.04 µM): 0.837; relative viability (PC-3 [JPC-3]; first compound 0.1265 µM): 0.736; relative viability (PC-3 [JPC-3]; first compound 0.4 µM): 0.721; relative viability (PC-3 [JPC-3]; first compound 1.265 µM): 0.342; relative viability (PC-3 [JPC-3]; first compound 4 µM): 0.688; relative viability (NCI-H2342; first compound 0.04 µM): 0.747; relative viability (NCI-H2342; first compound 0.1265 µM): 0.714; relative viability (NCI-H2342; first compound 0.4 µM): 0.741; relative viability (NCI-H2342; first compound 1.265 µM): 0.762; relative viability (NCI-H2342; first compound 4 µM): 0.69; relative viability (LOU-NH91; first compound 0.04 µM): 0.939; relative viability (LOU-NH91; first compound 0.1265 µM): 0.874; relative viability (LOU-NH91; first compound 0.4 µM): 0.955; relative viability (LOU-NH91; first compound 1.265 µM): 0.783; relative viability (LOU-NH91; first compound 4 µM): 0.882; relative viability (NCI-H1734; first compound 0.04 µM): 0.804; relative viability (NCI-H1734; first compound 0.1265 µM): 0.812; relative viability (NCI-H1734; first compound 0.4 µM): 0.937; relative viability (NCI-H1734; first compound 1.265 µM): 0.761; relative viability (NCI-H1734; first compound 4 µM): 0.775; relative viability (LXF-289; first compound 0.04 µM): 0.844; relative viability (LXF-289; first compound 0.1265 µM): 0.832; relative viability (LXF-289; first compound 0.4 µM): 0.801; relative viability (LXF-289; first compound 1.265 µM): 0.712; relative viability (LXF-289; first compound 4 µM): 0.75; relative viability (HOP-62; first compound 0.04 µM): 0.6; relative viability (HOP-62; first compound 0.1265 µM): 0.557; relative viability (HOP-62; first compound 0.4 µM): 0.758; relative viability (HOP-62; first compound 1.265 µM): 0.597; relative viability (HOP-62; first compound 4 µM): 0.642; relative viability (NCI-H2347; first compound 0.04 µM): 0.473; relative viability (NCI-H2347; first compound 0.1265 µM): 0.772; relative viability (NCI-H2347; first compound 0.4 µM): 0.516; relative viability (NCI-H2347; first compound 1.265 µM): 0.501; relative viability (NCI-H2347; first compound 4 µM): 0.586; relative viability (NCI-H2126; first compound 0.04 µM): 0.704; relative viability (NCI-H2126; first compound 0.1265 µM): 0.835; relative viability (NCI-H2126; first compound 0.4 µM): 0.837; relative viability (NCI-H2126; first compound 1.265 µM): 0.766; relative viability (NCI-H2126; first compound 4 µM): 0.691
